pIC50: −log10 of the molar value. Like-named read-outs stand apart in the source and are kept apart here.

Series [1] has as its system JURKAT (human T-cell line). As to the kind of experiment: Secondary assay: cell proliferation inhibition WST-1, Jurkat. Type of series: cell-based. The settings on record: 48 h, read-out: Cell Proliferation Inhibition WST-1 (IC50 unless otherwise specified) Jurkat. A general note: Formazan colour is commonly taken as a measure of viable cells.
In series [2] the test system is NHEK-Ad (primary human adult keratinocyte line). The series is described as follows: Secondary assay: cell proliferation inhibition WST-1, NHEK-Ad. Type of series: cell-based. To be noted: 48 h, read-out: Cell Proliferation Inhibition WST-1 (IC50 unless otherwise specified) NHEK-AD. The text has this: (§1) Compounds with HDAC inhibition activity, as determined using the primary assay, were subsequently evaluated using secondary cell-based assays. The following cell lines were used:
(§2) HeLa—Human cervical adenocarcinoma cell line (ATCC ref. No. CCL-2). K11—HPV E7 transformed human keratinocyte line provided by Pidder Jansen-Duerr, Institut für Biomedizinische Altemsforschung, Innsbruck, Austria. NHEK-Ad—Primary human adult keratinocyte line (Cambrex Corp., East Rutherford, N.J., USA).
(§3) Cells were plated in 96-well plates at 3-10×10^3 cells/well in 100 μL of culture medium. The following day, different concentrations of candidate compounds were added and the cells incubated at 37° C. for 48 h. Subsequently, 10 μL/well of WST-1 reagent was added and the cells reincubated for 1 hour. After the incubation time, absorbance was measured.
WST-1 is a tetrazolium salt which is cleaved to formazan dye by cellular enzymes. […] The formazan dye produced is quantified by a scanning multiwell spectrophotometer by measuring the absorbance of the dye solution at 450 nm wavelength (reference wavelength 690 nm).
Percent activity (% activity) in reducing the number of viable cells was calculated for each test compound as: […]
(§4) IC50 values were calculated using the software package Prism 3.0 (GraphPad Software Inc., San Diego, Calif.), setting top value at 100 and bottom value at 0.

For series [3], the system named is K11 (HPV E7 transformed human keratinocyte line). As to the kind of experiment: Secondary assay: cell proliferation inhibition WST-1, K11. The settings on record: 48 h, read-out: Cell Proliferation Inhibition WST-1 (IC50 unless otherwise specified) K11. Format: cell-based.
Text: as §1, §2, §3
(§5) WST-1 is a tetrazolium salt which is cleaved to formazan dye by cellular enzymes. An expansion in the number of viable cells results in an increase in the overall activity of mitochondrial dehydrogenases in the sample. This augmentation in the enzyme activity leads to an increase in the amount of formazan dye formed, which directly correlates to the number of metabolically active cells in the culture. The formazan dye produced is quantified by a scanning multiwell spectrophotometer by measuring the absorbance of the dye solution at 450 nm wavelength (reference wavelength 690 nm).
(§6) Percent activity (% activity) in reducing the number of viable cells was calculated for each test compound as:
(§7) % activity={(S^C−B)/(S^o−B)}×100
as §4

Another series has as its system HeLa cells. The series is described as follows: Secondary assay: cell proliferation inhibition WST-1, HeLa. To be noted: Homo sapiens, 48 h, read-out: Cell Proliferation Inhibition WST-1 (IC50 unless otherwise specified) HeLa. Format: cell-based.
Text: as §1, §2, §3, §5, §6, §7, §4

In another series the test system is HDAC (HeLa cell extract). The series is described as follows: Primary assay: deacetylase activity, HeLa cell extract as source of HDAC. Format: biochemical, human. The settings on record: for pIC50: read-out: HDAC Inhibition (IC50 unless otherwise specified) HeLa. As to the method: Decreased activity indicates increased inhibition by the test compound.
Alternatively, the activity of the compounds as HDAC inhibitors was determined using a commercially available fluorescent assay kit: (Fluor de Lys™, BioMol Research Labs, Inc., Plymouth Meeting, USA).
Extensive comparative studies have shown that Primary Assay (1) and Primary Assay (2), discussed above, yield equivalent results. Primary Assay results reported herein are (a) exclusively from (1); (b) exclusively from (2); or (c) from both (1) and (2).
The HeLa cell extract was made from HeLa cells (ATCC Ref. No. CCL-2) by freeze-thawing three times in 60 mM TrisCl pH 8.0, 450 mM NaCl, 30% glycerol. Two cell volumes of extraction buffer were used, and particulate material was centrifuged out (20800 g, 4° C., 10 min). The supernatant extract having deacetylase activity was aliquoted and frozen for storage.
as §7

Another series addresses mouse HDAC2 (Mus musculus, UniProt P70288). As to the kind of experiment: biochemical. An excerpt: Briefly, this assay relies on the release of radioactive acetate from a radioactively labelled histone fragment by the action of HDAC enzyme. Test compounds, which inhibit HDAC, reduce the yield of radioactive acetate. Signal (e.g., scintillation counts) measured in the presence and absence of a test compound provide an indication of that compound's ability to inhibit HDAC activity. Decreased activity indicates increased inhibition by the test compound. […]
After purification of the radiolabelled histone fragment, it was incubated with a source of HDAC (e.g., an extract of HeLa cells (a rich source of HDAC), recombinantly produced HDAC1 or HDAC2) and any released acetate was extracted into an organic phase and quantitatively determined using scintillation counting. By including a test compound with the source of HDAC, that compound's ability to inhibit the HDAC was determined. […]
A source of HDAC (e.g., 2 μL of crude HeLa extract, 5 μL of HDAC1 or HDAC2; in elution buffer, as above) was incubated with 3 μL of radioactively labelled peptide along with appropriate dilutions of candidate compounds (1.5 μL) in a total volume of 150 μL of buffer (20 mM Tris pH 7.4, 10% glycerol). […] Radioactivity was measured using a Tri-Carb 2100TR Liquid Scintillation Analyzer (Packard). […]

Where [4] appears, read: Homo sapiens, Keratinocyte, K11.

Chain of mouse HDAC2 (P70288 whole entry, the tested form may be a part): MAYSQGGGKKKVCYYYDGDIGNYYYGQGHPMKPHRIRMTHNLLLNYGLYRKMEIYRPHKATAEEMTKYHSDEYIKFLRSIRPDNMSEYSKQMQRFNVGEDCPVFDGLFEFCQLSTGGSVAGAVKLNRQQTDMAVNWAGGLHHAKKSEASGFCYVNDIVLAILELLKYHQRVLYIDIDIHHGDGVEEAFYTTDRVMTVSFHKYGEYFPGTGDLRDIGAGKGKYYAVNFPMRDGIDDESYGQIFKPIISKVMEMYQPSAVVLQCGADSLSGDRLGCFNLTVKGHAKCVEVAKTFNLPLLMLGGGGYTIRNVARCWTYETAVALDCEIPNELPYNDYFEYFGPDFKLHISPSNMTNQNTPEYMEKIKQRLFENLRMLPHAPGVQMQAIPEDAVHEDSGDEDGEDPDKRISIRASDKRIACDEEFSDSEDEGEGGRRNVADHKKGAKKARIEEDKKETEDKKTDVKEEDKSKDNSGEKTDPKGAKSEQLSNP

As for `Nc1ccccc1NC(=O)c1ccc(CNC(=O)OCc2cccnc2)cc1` [MS-275, reference compound], the pIC50 is 6.44 in series [1], 5.51 in series [2] (NHEK-AD) and 5.04 in series [3] (K11).
One may read the melting point as the temperature, or range, at which the solid turns liquid. On to `O=C(CCCCCCC(=O)N1CCN(C(c2ccccc2)c2ccccc2)CC1)NO` [PX117764], for which the melting point lay within 126 to 129 °C. In the series on HeLa cells, the pIC50 was 4.53. Also, the pIC50 in series [1] (Homo sapiens) is 5.57. Besides, in the series with HDAC (HeLa cell extract), the pIC50 was 6.11. Also, in series [3] (setting [4]), the pIC50 is 5.02.
On the same counts, the results for `COc1ccccc1N1CCN(C(=O)CCCCCCC(=O)NO)CC1` [PX117768, 8-[4-(2-Methoxy-phenyl)-piperazin-1-yl]-8-oxo-octanoic acid hydroxyamide] are 135 to 137 °C, 5.48, 5.98, 6.76 and 5.06.
In the case of `O=C(/C=C/c1cccc(S(=O)(=O)N2CCN(c3ccccc3)CC2)c1)NO` [PX118490, (E)-N-Hydroxy-3-{3-[(4-phenyl-1-piperazinyl)sulfonyl]phenyl}-2-propenamide], the pIC50 in the series on HeLa cells was 6.00; in series [1] (Homo sapiens) it was 6.34; in series [3] (setting [4]), 5.60. The “HDAC Inhibition HeLa, % @ 100 nM” value with HDAC (HeLa cell extract) (100 nM compound) is 59% @ 100 nM.
On to `CC(/C=C/C(=O)NO)=C\[C@@H](C)C(=O)c1ccc(N(C)C)cc1` [TSA, Trichostatin A, reference compound], for which the pIC50 was 6.46 with HeLa cells; 7.38 in series [1] (Homo sapiens); 7.77 against mouse HDAC2; 6.70 in series [2] (Homo sapiens, Keratinocyte); 6.42 in series [3] (Homo sapiens, Keratinocyte).

The values above are taken from patent US20080269237A1, “CARBAMIC ACID COMPOUNDS COMPRISING A PIPERAZINE LINKAGE AS HDAC INHIBITORS” (TOPOTARGET UK LIMITED, priority 2002, published 2008).
